Results: patent publication US6410790B1, “3-amin3-arylpropan-1-ol compounds, their preparation and use” (priority 1999, dated 2002)

Columns and labels:
[1] = tested on: benzothiazepine binding site of the L-type calcium channel; experiment: Diltiazem binding, L calcium channel; parameters: species or system rat; conditions: for Diltiazem Binding at 10 μM: percentage inhibition, [3H]-cis-(+)-diltiazem 5 nM, rat cerebral cortex membranes
Description: Binding Investigations in the L Calcium Channel
Benzothiazepine Binding Site (Diltiazem Binding)
The biological membrane material was isolated from the rat cerebral cortex. [^3H]-cis-(+)-diltiazem (5 nM in the assay) was used as ligand. The material was incubated for 20 minutes at 25° C. The radioactivity that is measured in the presence of (±)-diltiazem (10^−6 M in the assay) is defined as non-specific binding. After completion of incubation the non-bound fraction of the radioactive ligand is separated by means of a filtration process using Whatman Glasfiber GF/B membranes. The membranes are washed and the radioactivity is then measured using a β-counter. The method is based on the details published by Schoemaker and Langer (H. Schoemaker and S. Z. Langer (1985) Eur. J. Pharmacol. 111, 273-277).
(§1) For this purpose IC50 values are obtained, which can be converted to inhibitor constants (Ki) according to the “Cheng-Prusoff equation” (Y. C. Clieng and W. H. Prusoff (1973) Biochem. Pharmacol. 22, 3099-3108). The IC50 values were obtained by means of the computer program “Figure P” (version 6.0, Biosoft, Cambridge, England). Km values were calculated according to Lineweaver and Burk (H. Lineweaver and D. Burk (1934) J. Am. Chem. Soc. 56, 658-666). The “Ligand” computer program (version 4, Biosoft, England) was used to obtain Ken values.

[2] = tested on: binding site 2 of the sodium channel; experiment: BTX binding, sodium channel; conditions: rat cerebral cortex synaptosomes; for BTX Binding at 10 μM: percentage inhibition, [3H]-batrachotoxin A20 α-benzoate 10 nM
Description: Binding Investigations in the Sodium Channel
Binding Site 2 (BTX Binding)
The binding site 2 of the sodium channel is the so-called batrachotoxin (BTX) binding site. [^3H]-batrachlotoxin A20 α-benzoate (10 nM in the assay) was used as ligand. These ion channel particles (synaptosomes) were concentrated from rat cerebral cortex according to the procedure of Gray and Whittaker (E. G. Gray and V. P. Whittaker (1962) J. Anat. 76, 79-88). The radioactivity that is measured in the presence of veratridine (0.3 mM in the assay) is defined as non-specific binding. The material was incubated at 37° C. for 120 minutes. The assay conditions are carried out according to the protocol published by Pauwels, Leysen and Laduron (P. J. Pauwels, J. E. Leysen and P. M. Laduron (1986) Eur. J. Pharmacol. 124, 291-298).
(N=3, i.e. mean values±SEM from 3 independent series of experiments that were carried out in the form of triple parallel experiments).
as §1

[3] = tested on: phenylquinone-induced writhing reaction; experiment: phenylquinone-induced writhing test in mice; type: in vivo; conditions: male NMRI mice, phenylquinone i.p. 10 minutes later; for inhibition in vivo at 10 mg/kg: Mus musculus, iv, 10 min, 10 mg/kg intravenously
Description: Analgesic Effect in the Writhing Test in Mice
The analgesic effect was investigated in the phenylquinone-induced writhing test in mice (as modified by I. C. Hendershot and J. Forsaith (1959) J. Pharmacol. Exp. Ther. 125, 237-240). Male NMRI mice weighing 25 to 30 g were used for the test. Groups of 10 animals each received by intraperitoineal application, for each substance dose, 0.3 ml/mouse of a 0.02% aqueous solution of phenylquinone (phenylbenzoquinone, Sigma Company, Deisenhofen; solution prepared with addition of 5% of ethanol and kept in a water bath at 45° C.) 10 minutes after intravenous administration of the test substances. The animals were placed individually in observation cages. The number of pain-induced stretching movements (so-called writhing reactions=straightening of the body together with stretching of the rear extremities) was measured by means of a push-button counter 5 to 20 minutes after administration of the phenylquinone. Animals that had received only physiological saline solution served as controls. All substances were tested in the standard dose of 10 mg/kg. The percentage inhibition (% inhibition) of the writhing reaction produced by a substance was calculated according to the following formula: [formula]

NA transporter = target: T1, NA transporter (Rattus norvegicus, UniProt Q63380); experiment: synaptosomal noradrenaline uptake inhibition (NA uptake inhibition); type: biochemical; conditions: for NA Uptake Inhibition at 1 μM: 1 μM in the assay, synaptosomes from rat hypothalamus; for inhibition at 1 µM: read-out: NA Uptake Inhibition at 1 μM, 1 μM in the assay, synaptosomes from rat hypothalamus
T1 construct: synaptosomes are isolated fresh from rat brains; from tissue; host or cells: rat hypothalamus synaptosomes (P2 fraction)
T1 sequence (Q63380 1-617): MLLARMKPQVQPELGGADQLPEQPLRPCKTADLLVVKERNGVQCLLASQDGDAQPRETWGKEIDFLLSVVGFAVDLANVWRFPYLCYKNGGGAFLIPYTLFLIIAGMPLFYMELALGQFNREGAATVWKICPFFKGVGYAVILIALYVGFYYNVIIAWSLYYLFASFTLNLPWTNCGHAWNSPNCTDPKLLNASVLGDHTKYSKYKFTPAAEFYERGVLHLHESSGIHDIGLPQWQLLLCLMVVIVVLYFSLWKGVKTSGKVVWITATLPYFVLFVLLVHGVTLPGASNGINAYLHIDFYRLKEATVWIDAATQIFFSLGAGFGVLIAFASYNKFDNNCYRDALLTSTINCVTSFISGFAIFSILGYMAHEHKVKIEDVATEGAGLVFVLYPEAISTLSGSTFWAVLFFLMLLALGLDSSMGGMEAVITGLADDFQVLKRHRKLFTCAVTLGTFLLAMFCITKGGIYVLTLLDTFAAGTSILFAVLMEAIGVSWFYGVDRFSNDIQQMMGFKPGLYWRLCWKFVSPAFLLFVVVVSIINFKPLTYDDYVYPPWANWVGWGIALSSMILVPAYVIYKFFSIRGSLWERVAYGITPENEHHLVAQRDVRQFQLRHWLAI
Description: In order to carry out these in vitro studies, synaptosomes are isolated fresh from rat brains. In each case a so-called “P2” fraction is used, which is prepared according to the protocol of Gray and Whittaker (E. G. Gray and V. P. Whittaker (1962) J. Anat. 76, 79-88).
(in each case N=4, i.e. mean values±SEM from 4 independent series of experiments that were carried out in the form of triple parallel experiments).
as §1

COc1cccc(C(C2CCCCC2(O)c2cccc(Cl)c2)N(C)C)c1.Cl (centres unmarked) [Example 9]
Diltiazem Binding at 10 μM [1]: 91% | BTX Binding at 10 μM [2]: 89% | % Inhibition of the writhing reaction at 10 mg/kg intravenously [3]: 73% | NA Uptake Inhibition at 1 μM (NA transporter): 62%

COc1cccc(CC2(O)CCCCC2C(c2ccccc2)N(C)C)c1.Cl (centres unmarked) [Example 13, 2-(dimethylaminophenylmethyl)-1-(3-methoxybenzyl)cyclohexanol, hydrochloride]
Diltiazem Binding at 10 μM [1]: 88% | BTX Binding at 10 μM [2]: 94% | inhibition in vivo at 10 mg/kg [3]: 100% | inhibition at 1 µM (NA transporter): 95%

CN(C)C(c1ccccc1)C1CCCCC1(O)c1ccc(O)cc1.Cl (centres unmarked) [Example 20, 4-[2-(dimethylaminophenylmethyl)-1-hydroxycyclohexyl]phenol, hydrochloride]
Diltiazem Binding at 10 μM [1]: 69% | BTX Binding at 10 μM [2]: 68% | inhibition in vivo at 10 mg/kg [3]: 96% | inhibition at 1 µM (NA transporter): 68%

CN(C)C(c1ccccc1)C1CCCCC1(O)Cc1ccc(Cl)cc1.Cl (centres unmarked) [Example 23, 1-(4-chlorobenzyl)-2-(dimethylaminophenylmethyl)-1-cyclohexanol, hydrochloride]
Diltiazem Binding at 10 μM [1]: 100% | BTX Binding at 10 μM [2]: 94% | inhibition in vivo at 10 mg/kg [3]: 100% | inhibition at 1 µM (NA transporter): 99%

CN(C)C(c1ccccc1)C1CCCCC1(O)Cc1ccccc1F.Cl (centres unmarked) [Example 24, 2-(dimethylaminophenylmethyl)-1-(2-fluorobenzyl)cyclohexanol, hydrochloride]
Diltiazem Binding at 10 μM [1]: 93% | BTX Binding at 10 μM [2]: 92% | inhibition in vivo at 10 mg/kg [3]: 97% | inhibition at 1 µM (NA transporter): 98%

CN(C)C(c1ccccc1)C1CCCCC1(O)Cc1ccc(F)cc1.Cl (centres unmarked) [Example 25, 2-(dimethylaminophenylmethyl)-1-(4-fluorobenzyl)cyclohexanol, hydrochloride]
Diltiazem Binding at 10 μM [1]: 85% | BTX Binding at 10 μM [2]: 91% | inhibition in vivo at 10 mg/kg [3]: 100% | inhibition at 1 µM (NA transporter): 98%

COc1ccc(OC)c(C2(O)CCCCC2C(c2ccccc2)N(C)C)c1.Cl (centres unmarked) [Example 26, 1-(2,5-dimethoxyphenyl)-2-(dimethylaminophenylmethyl)cyclohexanol, hydrochloride]
Diltiazem Binding at 10 μM [1]: 87% | BTX Binding at 10 μM [2]: 85% | inhibition in vivo at 10 mg/kg [3]: 94% | inhibition at 1 µM (NA transporter): 5%

CN(C)C(c1ccccc1)C1CCCCC1(O)Cc1ccc(F)cc1Cl.Cl (centres unmarked) [Example 27, 1-(2-chloro-4-fluorobenzyl)-2-(dimethylaminophenylmethyl)cyclohexanol, hydrochloride]
Diltiazem Binding at 10 μM [1]: 96% | BTX Binding at 10 μM [2]: 97% | inhibition in vivo at 10 mg/kg [3]: 82% | inhibition at 1 µM (NA transporter): 89%

CN(C)C(c1ccccc1)C1CCCCC1(O)Cc1ccccc1Cl.Cl (centres unmarked) [Example 30, 1-(2-chlorobenzyl)-2-(dimethylaminophenylmetlhyl)cyclohexanol, hydrochloride]
Diltiazem Binding at 10 μM [1]: 98% | BTX Binding at 10 μM [2]: 96% | % Inhibition of the writhing reaction at 10 mg/kg intravenously [3]: 85% | NA Uptake Inhibition at 1 μM (NA transporter): 98%

COc1cccc(C(C2CCCCC2(O)c2ccc3c(c2)OCO3)N(C)C)c1.Cl (centres unmarked) [Example 31, 1-benzo[1,3]dioxol-5-yl-2-[dimethylamino-(3-methoxyphenyl)methyl]cyclohexanol, hydrochloride]
Diltiazem Binding at 10 μM [1]: 90% | BTX Binding at 10 μM [2]: 85% | inhibition in vivo at 10 mg/kg [3]: 76% | inhibition at 1 µM (NA transporter): 43%

CN(C)C(c1ccccc1)C1CCCCC1(O)Cc1cccc(Cl)c1.Cl (centres unmarked) [Example 32, 1-(3-chlorobenzyl)-2-(dimethylaminophenylmethyl)cyclohexanol, hydrochloride]
Diltiazem Binding at 10 μM [1]: 98% | BTX Binding at 10 μM [2]: 94% | inhibition in vivo at 10 mg/kg [3]: 100% | inhibition at 1 µM (NA transporter): 100%

CN(C)C(c1ccccc1)C1CCCCC1(O)Cc1ccc(Cl)cc1Cl.Cl (centres unmarked) [Example 33, 1-(2,4-dichlorobenzyl)-2-(dimethylaminophenylmethyl)cyclohexanol, hydrochloride]
Diltiazem Binding at 10 μM [1]: 86% | BTX Binding at 10 μM [2]: 98% | inhibition in vivo at 10 mg/kg [3]: 84% | inhibition at 1 µM (NA transporter): 83%

CN(C)C(c1ccccc1)(c1cccc(Oc2ccccc2)c1)C1CCCCC1(O)Cc1ccccc1.Cl (centres unmarked) [Example 34, 1-benzyl-2-[dimethylaminophenyl-(3-phenoxyphenyl)methyl]cyclohexanol, hydrochloride]
Diltiazem Binding at 10 μM [1]: 100% | BTX Binding at 10 μM [2]: 100% | inhibition in vivo at 10 mg/kg [3]: 99% | inhibition at 1 µM (NA transporter): 96%

COc1cccc(C(c2ccccc2)(C2CCCCC2(O)Cc2ccccc2)N(C)C)c1.Cl (centres unmarked) [Example 35, 1-benzyl-2-[dimethylaminophenyl-(3-methoxyphenyl)methyl]cyclohexanol, hydrochloride]
Diltiazem Binding at 10 μM [1]: 87% | BTX Binding at 10 μM [2]: 92% | inhibition in vivo at 10 mg/kg [3]: 81% | inhibition at 1 µM (NA transporter): 100%

CN(C)C(c1ccccc1)C1CCCCC1(O)Cc1cccc(C(F)(F)F)c1.Cl (centres unmarked) [Example 36, 2-(dimethylaminophenylmethyl)-1-(3-trifluoromethylbenzyl)cyclohexanol, hydrochloride]
BTX Binding at 10 μM [2]: 98% | inhibition in vivo at 10 mg/kg [3]: 100% | inhibition at 1 µM (NA transporter): 91%

COc1cccc(CC2(O)CCCCC2C(c2cccc(OC)c2)N(C)C)c1.Cl (centres unmarked) [Example 37, 2-(dimethylamino-(3-methoxyphenyl)methyl]-1-(3-methoxybenzyl)cyclohexanol, hydrochloride]
Diltiazem Binding at 10 μM [1]: 94% | BTX Binding at 10 μM [2]: 90% | inhibition in vivo at 10 mg/kg [3]: 93% | inhibition at 1 µM (NA transporter): 100%

CN(C)C(c1ccccc1Cl)C1CCCCC1(O)c1ccc2ccccc2c1.Cl (centres unmarked) [Example 38, 2-[(2-chlorophenyl)dimethylaminomethyl]-1-naphthalene-2-ylcyclohexanol, hydrochloride]
Diltiazem Binding at 10 μM [1]: 67% | BTX Binding at 10 μM [2]: 97% | inhibition in vivo at 10 mg/kg [3]: 85% | inhibition at 1 µM (NA transporter): 17%

CN(C)C(c1ccc(Cl)c(Cl)c1)C1CCCCC1(O)Cc1ccccc1.Cl (centres unmarked) [Example 39, 1-benzyl-2-[(3,4-dichlorophenyl)dimethylaminomethyl]cyclohexanol, hydrochloride]
Diltiazem Binding at 10 μM [1]: 76% | BTX Binding at 10 μM [2]: 97% | inhibition in vivo at 10 mg/kg [3]: 94% | inhibition at 1 µM (NA transporter): 61%

CN(C)C(c1ccc(Cl)c(Cl)c1)C1CCCCC1(O)CCc1ccccc1.Cl (centres unmarked) [Example 40, 2-[(3,4-dichlorophenyl)dimethylaminomethyl]-1-phenethylcyclohexanol, hydrochloride]
Diltiazem Binding at 10 μM [1]: 86% | BTX Binding at 10 μM [2]: 98% | inhibition in vivo at 10 mg/kg [3]: 72% | inhibition at 1 µM (NA transporter): 58%

[^3H]-batrachlotoxin A20 α-benzoate [reference compound]
Kd ([2]; radioligand, N=3, mean±SEM, read-out: KD value for this binding site): 24.6 ± 1.56 nM

[^3H]-cis-(+)-diltiazem [reference compound]
Kd ([1]; radioligand, rat cerebral cortex, N=3, mean±SEM, read-out: KD value for this high-affinity binding site): 4.1 ± 0.75 nM
